Measured values published in ChEMBL document CHEMBL4334492, “Nectriatide, a Potentiator of Amphotericin B Activity from Nectriaceae sp. BF-0114” (J Nat Prod, 2019).
Values after ≈ are worked out from the molar mass of the structure shown. Blank lines part the entries; values can stand above or below the compound they belong to. Active and inactive are the calls of the source. The calls are words filed in the database; no cut-off is given here. Non-standard residues stand in square brackets, D forms with d. Residues, ends and D or L forms follow the SMILES beside them. *: point of attachment. NMeY = CN[C@@H](Cc1ccc(O)cc1)C(=O)O; 2Abz = Nc1ccccc1C(=O)O; tBu = CC(C)(C)*

Experiments:
[1] = tested on: Candida albicans; assay: Potentiation of amphotericin-induced antifungal activity against Candida albicans ATCC 90029 assessed as fold reduction in amphotericin MIC at 8 ug/ml after 24 hrs by broth microdilution method relative to amphotericin MIC alone; format: functional
[2] = tested on: Candida albicans; assay: Potentiation of amphotericin-induced antifungal activity against Candida albicans ATCC 90029 assessed as fold reduction in amphotericin MIC at 16 ug/ml after 24 hrs by broth microdilution method relative to amphotericin MIC alone; format: functional
[3] = tested on: Candida albicans; assay: Potentiation of amphotericin-induced antifungal activity against Candida albicans ATCC 90029 assessed as amphotericin MIC at 8 ug/ml after 24 hrs by broth microdilution method (reference value: 0.5 ug/ml); format: functional; conditions: ATCC 90029, 24 h
[4] = tested on: Candida albicans; assay: Potentiation of amphotericin-induced antifungal activity against Candida albicans ATCC 90029 assessed as amphotericin MIC at 16 ug/ml after 24 hrs by broth microdilution method (reference value: 0.5 ug/ml); format: functional; conditions: ATCC 90029, 24 h
[5] = tested on: Candida albicans; assay: Potentiation of amphotericin-induced antifungal activity against Candida albicans ATCC 90029 assessed as fold reduction in amphotericin MIC at 32 ug/ml after 24 hrs by broth microdilution method relative to amphotericin MIC alone; format: functional
[6] = tested on: Candida albicans; assay: Potentiation of amphotericin-induced antifungal activity against Candida albicans ATCC 90029 assessed as amphotericin MIC at 32 ug/ml after 24 hrs by broth microdilution method (reference value: 0.5 ug/ml); format: functional; conditions: ATCC 90029, 24 h
[7] = tested on: Rhizopus arrhizus; assay: Potentiation of amphotericin-induced antifungal activity against Rhizopus oryzae NBRC4705 assessed as fold reduction in amphotericin MIC at 32 ug/ml after 24 hrs by broth microdilution assay relative to amphotericin MIC alone; format: functional
[8] = tested on: Saccharomyces cerevisiae; assay: Potentiation of amphotericin-induced antifungal activity against Saccharomyces cerevisiae S288c assessed as fold reduction in amphotericin MIC at 32 ug/ml after 24 hrs by broth microdilution assay relative to amphotericin MIC alone; format: functional
[9] = tested on: Saccharomyces cerevisiae; assay: Potentiation of amphotericin-induced antifungal activity against Saccharomyces cerevisiae S288c assessed as fold reduction in amphotericin MIC at 16 ug/ml after 24 hrs by broth microdilution assay relative to amphotericin MIC alone; format: functional
[10] = tested on: Rhizopus arrhizus; assay: Potentiation of amphotericin-induced antifungal activity against Rhizopus oryzae NBRC4705 assessed as amphotericin MIC at 4 ug/ml after 24 hrs by broth microdilution assay (reference value: 1 ug/ml); format: functional; conditions: NBRC4705, 24 h
[11] = tested on: Saccharomyces cerevisiae; assay: Potentiation of amphotericin-induced antifungal activity against Saccharomyces cerevisiae S288c assessed as fold reduction in amphotericin MIC at 8 ug/ml after 24 hrs by broth microdilution assay relative to amphotericin MIC alone; format: functional
[12] = tested on: HEK293; assay: Cytotoxicity against human HEK293 cells at 128 ug/ml after 24 hrs by MTT assay; format: cell-based; conditions: hek293, 24 h
[13] = tested on: HCT-116; assay: Cytotoxicity against human HCT116 cells at 128 ug/ml after 24 hrs by MTT assay; format: cell-based; conditions: hct-116, 24 h
[14] = tested on: Saccharomyces cerevisiae; assay: Potentiation of amphotericin-induced antifungal activity against Saccharomyces cerevisiae S288c assessed as amphotericin MIC at 32 ug/ml after 24 hrs by broth microdilution assay (reference value: 0.5 ug/ml); format: functional
[15] = tested on: Rhizopus arrhizus; assay: Potentiation of amphotericin-induced antifungal activity against Rhizopus oryzae NBRC4705 assessed as amphotericin MIC at 2 ug/ml after 24 hrs by broth microdilution assay (reference value: 1 ug/ml); format: functional; conditions: NBRC4705, 24 h
[16] = tested on: Saccharomyces cerevisiae; assay: Potentiation of amphotericin-induced antifungal activity against Saccharomyces cerevisiae S288c assessed as amphotericin MIC after 24 hrs by broth microdilution assay (reference value: 0.5 ug/ml); format: functional, organism-based
[17] = tested on: Rhizopus arrhizus; assay: Potentiation of amphotericin-induced antifungal activity against Rhizopus oryzae NBRC4705 assessed as fold reduction in amphotericin MIC at 2 ug/ml after 24 hrs by broth microdilution assay relative to amphotericin MIC alone; format: functional
[18] = tested on: Aspergillus niger; assay: Potentiation of amphotericin-induced antifungal activity against Aspergillus niger ATCC 6275 assessed as amphotericin MIC at 32 ug/ml after 48 hrs by broth microdilution method (reference value: 0.25 ug/ml); format: functional; conditions: ATCC 6275, 48 h
[19] = tested on: Saccharomyces cerevisiae; assay: Potentiation of amphotericin-induced antifungal activity against Saccharomyces cerevisiae S288c assessed as amphotericin MIC at 2 ug/ml after 24 hrs by broth microdilution assay (reference value: 0.5 ug/ml); format: functional
[20] = tested on: Jurkat; assay: Cytotoxicity against human Jurkat cells at 128 ug/ml after 24 hrs by MTT assay; format: cell-based
[21] = tested on: Candida albicans; assay: Potentiation of micafungin-induced antifungal activity against Candida albicans ATCC 90029 at 64 ug/ml after 24 hrs by broth microdilution assay; format: functional, organism-based
[22] = tested on: HEK293; assay: Cytotoxicity against human HEK293 cells assessed as reduction in cell viability after 24 hrs by MTT assay; format: cell-based; conditions: HEK293, 24 h
[23] = tested on: Rhizopus arrhizus; assay: Potentiation of amphotericin-induced antifungal activity against Rhizopus oryzae NBRC4705 assessed as fold reduction in amphotericin MIC at 16 ug/ml after 24 hrs by broth microdilution assay relative to amphotericin MIC alone; format: functional
[24] = tested on: Saccharomyces cerevisiae; assay: Potentiation of amphotericin-induced antifungal activity against Saccharomyces cerevisiae S288c assessed as fold reduction in amphotericin MIC at 4 ug/ml after 24 hrs by broth microdilution assay relative to amphotericin MIC alone; format: functional
[25] = tested on: Candida albicans; assay: Potentiation of miconazole-induced antifungal activity against Candida albicans ATCC 90029 at 64 ug/ml after 24 hrs by broth microdilution assay; format: functional, organism-based
[26] = tested on: Rhizopus arrhizus; assay: Potentiation of amphotericin-induced antifungal activity against Rhizopus oryzae NBRC4705 assessed as fold reduction in amphotericin MIC at 4 ug/ml after 24 hrs by broth microdilution assay relative to amphotericin MIC alone; format: functional
[27] = tested on: HaCaT; assay: Cytotoxicity against human HaCaT cells assessed as reduction in cell viability at 128 ug/ml after 24 hrs by MTT assay; format: cell-based
[28] = tested on: Saccharomyces cerevisiae; assay: Potentiation of amphotericin-induced antifungal activity against Saccharomyces cerevisiae S288c assessed as amphotericin MIC at 8 ug/ml after 24 hrs by broth microdilution assay (reference value: 0.5 ug/ml); format: functional
[29] = tested on: Aspergillus niger; assay: Potentiation of amphotericin-induced antifungal activity against Aspergillus niger ATCC 6275 assessed as fold reduction in amphotericin MIC at 32 ug/ml after 48 hrs by broth microdilution method relative to amphotericin MIC alone; format: functional
[30] = tested on: Rhizopus arrhizus; assay: Potentiation of amphotericin-induced antifungal activity against Rhizopus oryzae NBRC4705 assessed as amphotericin MIC after 24 hrs by broth microdilution assay (reference value: 1 ug/ml); format: functional, organism-based
[31] = tested on: Saccharomyces cerevisiae; assay: Potentiation of amphotericin-induced antifungal activity against Saccharomyces cerevisiae S288c assessed as amphotericin MIC at 16 ug/ml after 24 hrs by broth microdilution assay (reference value: 0.5 ug/ml); format: functional
[32] = tested on: Rhizopus arrhizus; assay: Potentiation of amphotericin-induced antifungal activity against Rhizopus oryzae NBRC4705 assessed as fold reduction in amphotericin MIC at 8 ug/ml after 24 hrs by broth microdilution assay relative to amphotericin MIC alone; format: functional
[33] = tested on: Saccharomyces cerevisiae; assay: Potentiation of amphotericin-induced antifungal activity against Saccharomyces cerevisiae S288c assessed as amphotericin MIC at 4 ug/ml after 24 hrs by broth microdilution assay (reference value: 0.5 ug/ml); format: functional
[34] = tested on: Rhizopus arrhizus; assay: Potentiation of amphotericin-induced antifungal activity against Rhizopus oryzae NBRC4705 assessed as amphotericin MIC at 16 ug/ml after 24 hrs by broth microdilution assay (reference value: 1 ug/ml); format: functional; conditions: NBRC4705, 24 h
[35] = tested on: Rhizopus arrhizus; assay: Potentiation of amphotericin-induced antifungal activity against Rhizopus oryzae NBRC4705 assessed as amphotericin MIC at 32 ug/ml after 24 hrs by broth microdilution assay (reference value: 1 ug/ml); format: functional; conditions: NBRC4705, 24 h
[36] = tested on: Rhizopus arrhizus; assay: Potentiation of amphotericin-induced antifungal activity against Rhizopus oryzae NBRC4705 assessed as amphotericin MIC at 8 ug/ml after 24 hrs by broth microdilution assay (reference value: 1 ug/ml); format: functional; conditions: NBRC4705, 24 h
[37] = tested on: Saccharomyces cerevisiae; assay: Potentiation of amphotericin-induced antifungal activity against Saccharomyces cerevisiae S288c assessed as fold reduction in amphotericin MIC at 2 ug/ml after 24 hrs by broth microdilution assay relative to amphotericin MIC alone; format: functional

MIC [3]: 0.13 µg/mL | MIC [4]: 0.063 µg/mL | MIC [6]: 0.031 µg/mL
Compound: CC(C)[C@@H]1NC(=O)[C@H](C)NC(=O)c2ccccc2NC(=O)[C@H](Cc2ccc(OC(C)(C)C)cc2)N(C)C1=O (cyclo([2Abz]AV[NMeY](tBu)))
Ratio [1]: 4 | Ratio [2]: 8 | Ratio [5]: 16

MIC [3]: 0.13 µg/mL | MIC [4]: 0.063 µg/mL | MIC [6]: 0.031 µg/mL
Compound: CC(C)[C@H]1NC(=O)[C@H](C)NC(=O)c2ccccc2NC(=O)[C@H](Cc2ccc(O)cc2)N(C)C1=O
Ratio [1]: 4 | Ratio [2]: 8 | Ratio [5]: 16

MIC [10]: 0.5 µg/mL | MIC [14]: 0.031 µg/mL | MIC [15]: 0.5 µg/mL | MIC [3]: 0.13 µg/mL | MIC [18]: 0.25 µg/mL | MIC [19]: 0.13 µg/mL | MIC [4]: 0.063 µg/mL | MIC [28]: 0.063 µg/mL | MIC [31]: 0.031 µg/mL | MIC [33]: 0.13 µg/mL | MIC [34]: 0.25 µg/mL | MIC [35]: 0.25 µg/mL | MIC [36]: 0.25 µg/mL | MIC [6]: 0.031 µg/mL
Compound: CC(C)[C@@H]1NC(=O)[C@H](C)NC(=O)c2ccccc2NC(=O)[C@H](Cc2ccc(O)cc2)N(C)C1=O
Ratio [7]: 4 | Ratio [8]: 16 | Ratio [1]: 4 | Ratio [9]: 16 | Ratio [11]: 8 | Activity [12]: Non-Toxic | Ratio [2]: 8 | Activity [13]: Non-Toxic | Activity [16]: Dose-dependent effect | Ratio [17]: 2 | Activity [20]: Non-Toxic | Activity [21]: inactive | IC50 [22]: > 128 µg/mL | Ratio [23]: 4 | Ratio [24]: 4 | Activity [25]: inactive | Ratio [26]: 2 | Ratio [5]: 16 | Activity [27]: Non-Toxic | Ratio [29]: 1 | Activity [30]: Dose-dependent effect | Ratio [32]: 4 | Ratio [37]: 4

MIC [3]: 0.25 µg/mL | MIC [4]: 0.13 µg/mL | MIC [6]: 0.13 µg/mL
Compound: CC(C)[C@H](NC(=O)[C@H](C)NC(=O)c1ccccc1N)C(=O)N(C)[C@@H](Cc1ccc(OC(C)(C)C)cc1)C(=O)O (H-[2Abz]AV[NMeY](tBu)-OH)
Ratio [1]: 2 | Ratio [2]: 4 | Ratio [5]: 4

MIC [3]: 0.13 µg/mL | MIC [4]: 0.063 µg/mL | MIC [6]: 0.031 µg/mL
Compound: CN[C@@H](Cc1ccc(OC(C)(C)C)cc1)C(=O)Nc1ccccc1C(=O)N[C@@H](C)C(=O)N[C@H](C(=O)O)C(C)C (H-[NMeY](tBu)[2Abz]AV-OH)
Ratio [1]: 4 | Ratio [2]: 8 | Ratio [5]: 16

Compound: C[C@@H]1[C@H](O)[C@@H](C)/C=C/C=C/C=C/C=C/C=C/C=C/C=C/[C@H](O[C@@H]2O[C@H](C)[C@@H](O)[C@H](N)[C@@H]2O)C[C@@H]2O[C@](O)(C[C@@H](O)C[C@@H](O)[C@H](O)CC[C@@H](O)C[C@@H](O)CC(=O)O[C@H]1C)C[C@H](O)[C@H]2C(=O)O [AMPHOTERICIN B]
IC50 [22]: 15 µg/mL (≈ 16.2 µM)
